Results reported in the NIST ThermoML archive (doi:10.1016/j.jct.2005.10.013).

Experiment: mn = molality of the nth substance listed, in mol/kg
Details: 101 kPa, Liquid, Sing-around technique in a fixed-path interferometer

CN(CCO)CCO [N-methyldiethanolamine] + O
speed of sound [m/s]
Details | m1 = 0.3067 | m1 = 0.5017 | m1 = 0.7035 | m1 = 0.8982 | m1 = 1.088 | m1 = 1.357 | m1 = 1.652 | m1 = 2.161
283.15 K | 1474.2 | 1489.7 | 1505.1 | 1519.3 | 1532.8 | 1550.9 | 1569.5 | 1598.7
298.15 K | 1520 | 1532.9 | 1545.8 | 1557.6 | 1568.7 | 1583.6 | 1598.9 | 1622.6
313.15 K | 1547.7 | 1557.7 | 1567.7 | 1576.9 | 1585.5 | 1597 | 1608.8 | 1626.9
